Results reported in patent publication US20040242687A1, “Thrombus/thrombogenesis inhibitors” (priority 2001, published 2004).
“Also recorded” adds a separate entry of the source. Where two headings read alike, the source gives them in different places.

Columns and labels:
[1] = tested on: patients with transient cerebral ischemic attack (TIA) / cerebral infarction; details: for recurrence of TIA / onset or recurrence of cerebral infarction during administration: administration continued for 337 days, single patients, hydrochloride
Method: The present invention will be explained according to the following examples in more detail. However, the scope of the invention is not limited to these examples.
A person. They occurred transient cerebral ischemic attack (TIA). From three days after the onset, treatment with 160 mg/day of Cataclot (Ono Pharmaceutical Co., Ltd.) was started and it was continued for 2 weeks.
A person. They occurred TIA.
A person. They occurred TIA. From three days after the onset, treatment with 81 mg/day of Kids Bufferin (Lion Corporation) was started and this treatment was continued for about one month.
(§1) A person. They occurred cerebral infarction.
A person. They occurred cerebral infarction and, ten months after the occurrence of TIA.
as §1
A person. They occurred cerebral infarction. […] From that day of the onset of TIA, they were hospitalized for one week and subjected to intravenous drip containing 1 g of Nicholin H (Takeda Chemical Industries, Ltd.) and administration of 300 mg/day of Panaldine (Daiichi Pharmaceutical Co., Ltd.).
A person. They occurred cerebral infarction. […] They occurred TIA two years after the onset of cerebral infarction. From that day of the onset of TIA, administration of 200 mg/day of Panaldine (Daiichi Pharmaceutical Co., Ltd.) and, in addition, 162 mg/day of Kids Bufferin (Lion Corporation) was started.
A person. They occurred cerebral infarction. […] Immediately after the recurrence, they were treated with fluid for supplementation, urokinase and 300 mg/day of Panaldine (Daiichi Pharmaceutical Co., Ltd.).

[2] = tested on: stroke, myocardial infarction and vascular death; details: 142 trials; cited from earlier work

Row | SMILES | recurrence of TIA / onset or recurrence of cerebral infarction during administration ([1]; 75 mg/day) | recurrence of TIA / onset or recurrence of cerebral infarction during administration ([1]; 150 mg/day) | recurrence of TIA and cerebral infarction during administration ([1]; 150 mg/day, administration continued for 496 days, single patient) | recurrence of TIA / onset or recurrence of cerebral infarction during administration ([1]; 300 mg/day) | reduction ratio of odds concerning stroke, myocardial infarction and vascular death against the control group [2] [%]
1 | COc1cccc(CCc2ccccc2OCC(CN(C)C)OC(=O)CCC(=O)O)c1.Cl (racemic) [sarpogrelate hydrochloride, (±)-1-[O-[2-(m-methoxyphenyl)ethyl]phenoxy]-3-(dimethylamino)-2-propyl hydrogensuccinate hydrochloride] | neither recurrence of TIA nor onset of cerebral infarction was observed; also recorded: recurrence of TIA and cerebral infarction was not observed | neither recurrence of TIA nor onset of cerebral infarction was observed; also recorded: recurrence of TIA and cerebral infarction was not observed | recurrence of TIA and cerebral infarction was not observed | neither recurrence of TIA nor onset of cerebral infarction was observed; also recorded: recurrence of TIA and cerebral infarction was not observed | –
2 | CC(=O)Oc1ccccc1C(=O)O [aspirin] | – | – | – | – | 25
